Patent EP0366226A1, “Stabilized thiocarbonate solutions and the use thereof for controlling soil pests” (UNION OIL COMPANY OF CALIFORNIA, priority 1988, dated 1990)
Marks after values point to notes of the source that are not given here.

Columns and labels:
[1] = Effect of pH on production of CS2 from thiocarbonates in citrate-phosphate buffers (gas chromatography of air); type: physicochemical
Method: Pure carbon disulfide was also injected, for comparison. A syringe was used to periodically sample air in the bottle, and the air was analyzed by gas chromotography.

[2] = Degradation time in sandy loam soil at different moisture (CS2 in air space by gas chromatography); type: physicochemical
Method: A sandy loam soil was placed in 1-liter glass bottles, fitted with stoppers having fluorocarbon liners and silicone rubber septa, to give a soil depth of about 4 cm. Water was added to the soil, in quantities to obtain 50 and 100 percent soil saturation. Thiocarbonate solution or carbon disulfide was then injected near the bottom of the soil layer, the bottles were promptly sealed, and the air space in the bottles was sampled at intervals with a syringe, for gas chromatographic analysis of CS₂. The results are summarized below, wherein degradation time is the number of hours required to achieve the maximum CS₂ concentration in the air space.

[3] = Rate of carbon disulfide loss from solutions on nitrogen bubbling (mass spectrometer); type: physicochemical; conditions: undiluted (pure CS2; Ex. 1 100%)
Method: The rate at which carbon disulfide is lost from diluted ammonium thiocarbonate compositions was determined by bubbling nitrogen through the solutions and measuring the carbon disulfide content of the gas which leaves the solution using a mass spectrometer.
In the determination, the solution, corresponding to that of Example 1 (containing 14.1 percent by weight carbon disulfide), was compared to pure carbon disulfide, and to serial dilutions of the Example 1 solution with water, which were 10, 1 and 0.1 volume percent solutions of the original composition. The results are tabulated below, wherein k is the calculated first order rate constant for loss of carbon disulfide, and t is the solution half-life.

[4] = tested on: tomato plants; assay: Greenhouse nematocide experiment, plant dry weight / phytotoxicity; type: in vivo; conditions: Application 50 ppm; 37 days of growth
Description: (§1) Eighty containers were used, each containing about 500 grams of sterilized sandy loam soil. Each container was given four 5-milliliter injections of extract from nematode-infested pepper roots, one inch below the soil surface, producing an initial population of 2000 root-knot nematode larvae per container.
(§2) Twenty treatments were replicated four times, each treatment consisting of solution injection into the soil at a two inch depth. The treatments included each of the six compositions from Example 3 at three levels, plus one level of the known nematocide 1,2-dibromo-3-chloropropane (DBCP), and a control with only water injected. After injection, each container was enclosed in a plastic bag and placed in the shade for three days. Upon removing the bags, the soils were aerated by stirring and were allowed to stand undisturbed for eight additional days. Following an additional aeration, a tomato seedling was planted in eac pot.
(§3) Each container received 25 milligrams nitrogen (as calcium nitrate) immediately after planting, followed by 2 grams of a slow release complete fertilizer. […] By use of a magnifying glass, the number of root galls was counted on each plant. […]
(§4) The results are shown in the following table, in which the "Application" represents milligrams of treatment per kilogram of soil, calculated as contained carbon disulfide for the Example 3 solutions. […]

[5] = tested on: root-knot nematode larvae; assay: Greenhouse nematocide experiment with tomato plants, root gall count; type: in vivo; conditions: Application 50 ppm; mean of four replicates; asterisk = statistically indistinguishable
Description: as §1, §2, §3, §4

Row | Structure (SMILES) | Half-life (minutes) for production of carbon disulfide ([1]; pH 5.2, 125 milligrams of thiocarbonate ion per liter) [min] | Half-life (minutes) for production of carbon disulfide ([1]; pH 6.0) [min] | Half-life (minutes) for production of carbon disulfide ([1]; pH 7.0) [min] | Half-life (minutes) for production of carbon disulfide ([1]; pH 8.0, CaCS4 values above pH 7 called unreliable) [min] | Degradation Time ([2]; Soil Moisture 50 % of Saturation) [h] | Degradation Time ([2]; Soil Moisture 100 % of Saturation) [h] | k, first order rate constant for loss of carbon disulfide [3] [h⁻¹] | Dry Weight, Grams Roots [4] [Grams] | Dry Weight, Grams Total [4] [Grams] | Gall Count [5]
1 | S=C=S [CS₂, carbon disulfide, reference compound] | 1 | 1 | 1 | 1 | 3.5 | 3.5 | 2.0 |  |  | 
2 | ClCC(Br)CBr (stereo not shown) [DBCP, 1,2-dibromo-3-chloropropane] |  |  |  |  |  |  |  | 0.273 | 1.238 | 0*
